Earlier results on 1 compound are cited in US20090291152A1, “DIBENZOTHIAZEPINE DERIVATIVES” (Concert Pharmaceuticals Inc., priority 2006, published 2009).

For data set [1] the following is noted: majority of the metabolites.
For data set [2] the following is noted: patients with hepatic impairment.

As to `OCCOCCN1CCN(C2=Nc3ccccc3Sc3ccccc32)CC1` [quetiapine, 11-[4-[2-(2-Hydroxyethoxy)ethyl]piperazin-1-yl]dibenzo[b,f][1,4]thiazepine], the “metabolites excreted in the urine” value in data set [1] is given as 73%. Moreover, in data set [2], the “increase in AUC” value is 3 fold and the “increase in Cmax” value is given as 3 fold.
